Values after ≈ are worked out from the molar mass of the structure shown.
tested on: Clostridium difficile (Isolate ID ATCC 9689); assay: Bacterial Assay: Determination of Antibacterial Activity (MIC, broth microdilution or agar dilution); type: cell-based; conditions: Clostridioides difficile, ATCC9689, 48 h, read-out: C. difficile MIC Activity Range
Method: Bacterial Assay: Determination of Antibacterial Activity Compounds of the invention were tested for antimicrobial activity by susceptibility testing in liquid or on solid media. Minimum inhibitory concentrations (MICs) for compounds against each strain were determined by the broth microdilution or agar dilution method according to the guidelines of the Clinical Laboratories and Standards Institute, formerly the National Committee for Clinical Laboratory Standards (Clinical Laboratories and Standards Institute. Methods for Dilution Antimicrobial Susceptibility Tests for Bacteria That Grow Anaerobically; Approved Standard-Seventh Edition. Document M11-A7, CLSI, Wayne, Pa., 2007, Clinical Laboratories and Standards Institute). Briefly MICs were determined by visible inspection after 48 hours of growth in the presence of compounds, cultures were grown at 37° C. in anaerobic gas packs using reinforced clostridial medium supplemented with 0.1% defribrinated horse blood. The bacterial strains tested include C. difficile (Clostridium difficile (Isolate ID ATCC 9689)) (Table 2) and two drug resistant clinical isolates (Clostridium difficile (Isolate ID BI-9) and Clostridium difficile (Isolate ID 027-01) (Table 3).
MICs were determined to be within the activity ranges “A” activity≦1.01 μg/mL; “B” activity>1.0 μg/mL-4.0 μg/mL; “C” activity>4.0 μg/mL-16 μg/mL

Cn1ccc(CNC(=O)OCC(Oc2ccc(F)c(C(N)=O)c2F)c2nc(-c3ccc(C(F)(F)F)cc3)c(Br)o2)n1 (stereo not shown) [Compound 72, 2-{5-bromo-4-[4-(trifluoromethyl)phenyl]-1,3-oxazol-2-yl}-2-(3-carbamoyl-2,4-difluorophenoxy)ethyl [(1-methyl-1H-pyrazol-3-yl)methyl]carbamate] was tested. Which MIC did it give?
The MIC was < 1.01 µg/mL.

How did the MIC turn out when Cn1nccc1CNC(=O)OCC(Oc1ccc(F)c(C(N)=O)c1F)c1nc(-c2ccc(C(F)(F)F)cc2)c(Br)o1 (stereo not shown) [Compound 73, 2-{5-bromo-4-[4-(trifluoromethyl)phenyl]-1,3-oxazol-2-yl}-2-(3-carbamoyl-2,4-difluorophenoxy)ethyl [(1-methyl-1H-pyrazo1-5-yl)methyl]carbamate] was run?
Its MIC is < 1.01 µg/mL.

For CN(Cc1ccncn1)C(=O)OCC(Oc1ccc(F)c(C(N)=O)c1F)c1nc(-c2ccc(C(F)(F)F)cc2)c(Br)o1 (stereo not shown) [Compound 75, 2-{5-bromo-4-[4-(trifluoromethyl)phenyl]-1,3-oxazol-2-yl}-2-(3-carbamoyl-2,4-difluorophenoxy)ethyl methyl(pyrimidin-4-ylmethyl)carbamate], which MIC is on record?
The MIC was 1 to 4 µg/mL (≈ 1.52 to 6.09 µM).

Cn1cc(CNC(=O)OCC(Oc2ccc(F)c(C(N)=O)c2F)c2nc(-c3ccc(C(F)(F)F)cc3)c(Br)o2)cn1 (stereo not shown) [Compound 76, 2-{5-bromo-4-[4-(trifluoromethyl)phenyl]-1,3-oxazol-2-yl}-2-(3-carbamoyl-2,4-difluorophenoxy)ethyl [(1-methyl-1H-pyrazol-4-yl)methyl]carbamate] was tested. Which MIC did it give?
Its MIC is < 1.01 µg/mL.

Which MIC does the source give for Cc1cccc(CNC(=O)OCC(Oc2ccc(F)c(C(N)=O)c2F)c2nc(-c3ccc(C(F)(F)F)cc3)c(Br)o2)n1 (stereo not shown) [Compound 77, 2-{5-bromo-4-[4-(trifluoromethyl)phenyl]-1,3-oxazol-2-yl}-2-(3-carbamoyl-2,4-difluorophenoxy)ethyl [(6-methylpyridin-2-yl)methyl]carbamate] here?
The MIC was 1 to 4 µg/mL (≈ 1.53 to 6.1 µM).

How did the MIC turn out when Cc1cc(CNC(=O)OCC(Oc2ccc(F)c(C(N)=O)c2F)c2nc(-c3ccc(C(F)(F)F)cc3)c(Br)o2)ccn1 (stereo not shown) [Compound 78, 2-{5-bromo-4-[4-(trifluoromethyl)phenyl]-1,3-oxazol-2-yl}-2-(3-carbamoyl-2,4-difluorophenoxy)ethyl [(2-methylpyridin-4-yl)methyl]carbamate] was run?
The MIC was < 1.01 µg/mL.

With Cn1ccnc1CNC(=O)OCC(Oc1ccc(F)c(C(N)=O)c1F)c1nc(-c2ccc(C(F)(F)F)cc2)c(Br)o1 (stereo not shown) [Compound 79, 2-{5-bromo-4-[4-(trifluoromethyl)phenyl]-1,3-oxazol-2-yl}-2-(3-carbamoyl-2,4-difluorophenoxy)ethyl [(1-methyl-1H-imidazol-2-yl)methyl]carbamate] as the molecule, how does the MIC read?
The MIC was 4 to 16 µg/mL (≈ 6.21 to 24.8 µM).

Cc1nn(C)cc1CNC(=O)OCC(Oc1ccc(F)c(C(N)=O)c1F)c1nc(-c2ccc(C(F)(F)F)cc2)c(Br)o1 (stereo not shown) [Compound 81, 2-{5-bromo-4-[4-(trifluoromethyl)phenyl]-1,3-oxazol-2-yl}-2-(3-carbamoyl-2,4-difluorophenoxy)ethyl [(1,3-dimethyl-1H-pyrazol-4-yl)methyl]carbamate] was tested. Which MIC did it give?
Its MIC is < 1.01 µg/mL.

Cc1c(CNC(=O)OCC(Oc2ccc(F)c(C(N)=O)c2F)c2nc(-c3ccc(C(F)(F)F)cc3)c(Br)o2)cnn1C (stereo not shown) [Compound 82, 2-{5-bromo-4-[4-(trifluoromethyl)phenyl]-1,3-oxazol-2-yl}-2-(3-carbamoyl-2,4-difluorophenoxy)ethyl [(1,5-dimethyl-1H-pyrazol-4-yl)methyl]carbamate] was tested. Which MIC did it give?
The MIC was < 1.01 µg/mL.

With COc1ccc(CNC(=O)OCC(Oc2ccc(F)c(C(N)=O)c2F)c2nc(-c3ccc(C(F)(F)F)cc3)c(Br)o2)cn1 (stereo not shown) [Compound 83, 2-{5-bromo-4-[4-(trifluoromethyl)phenyl]-1,3-oxazol-2-yl}-2-(3-carbamoyl-2,4-difluorophenoxy)ethyl [(6-methoxypyridin-3-yl)methyl]carbamate] as the molecule, how does the MIC read?
Its MIC is < 1.01 µg/mL.

For COc1cc(CNC(=O)OCC(Oc2ccc(F)c(C(N)=O)c2F)c2nc(-c3ccc(C(F)(F)F)cc3)c(Br)o2)ccn1 (stereo not shown) [Compound 84, 2-{5-bromo-4-[4-(trifluoromethyl)phenyl]-1,3-oxazol-2-yl}-2-(3-carbamoyl-2,4-difluorophenoxy)ethyl [(2-methoxypyridin-4-yl)methyl]carbamate], which MIC is on record?
The MIC was < 1.01 µg/mL.

Which MIC does the source give for Cn1c(CNC(=O)OCC(Oc2ccc(F)c(C(N)=O)c2F)c2nc(-c3ccc(C(F)(F)F)cc3)c(Br)o2)nc2ccccc21 (stereo not shown) [Compound 85, 2-{5-bromo-4-[4-(trifluoromethyl)phenyl]-1,3-oxazol-2-yl}-2-(3-carbamoyl-2,4-difluorophenoxy)ethyl [(1-methyl-1H-benzimidazol-2-yl)methyl]carbamate] here?
Its MIC is 1 to 4 µg/mL (≈ 1.44 to 5.76 µM).

For Cc1ccc(CNC(=O)OCC(Oc2ccc(F)c(C(N)=O)c2F)c2nc(-c3ccc(C(F)(F)F)cc3)c(Br)o2)n1C (stereo not shown) [Compound 86, 2-{5-bromo-4-[4-(trifluoromethyl)phenyl]-1,3-oxazol-2-yl}-2-(3-carbamoyl-2,4-difluorophenoxy)ethyl [(1,5-dimethyl-1H-pyrrol-2-yl)methyl]carbamate], which MIC is on record?
Its MIC is 1 to 4 µg/mL (≈ 1.52 to 6.08 µM).

With Cc1cc(CNC(=O)OCC(Oc2ccc(F)c(C(N)=O)c2F)c2nc(-c3ccc(C(F)(F)F)cc3)c(Br)o2)n(C)n1 (stereo not shown) [Compound 87, 2-{5-bromo-4-[4-(trifluoromethyl)phenyl]-1,3-oxazol-2-yl}-2-(3-carbamoyl-2,4-difluorophenoxy)ethyl [(1,3-dimethyl-1H-pyrazol-5-yl)methyl]carbamate] as the molecule, how does the MIC read?
Its MIC is 1 to 4 µg/mL (≈ 1.52 to 6.08 µM).

How did the MIC turn out when Cc1cc(CNC(=O)OCC(Oc2ccc(F)c(C(N)=O)c2F)c2nc(-c3ccc(C(F)(F)F)cc3)c(Br)o2)nn1C (stereo not shown) [Compound 88, 2-{5-bromo-4-[4-(trifluoromethyl)phenyl]-1,3-oxazol-2-yl}-2-(3-carbamoyl-2,4-difluorophenoxy)ethyl [(1,5-dimethyl-1H-pyrazol-3-yl)methyl]carbamate] was run?
The MIC was 1 to 4 µg/mL (≈ 1.52 to 6.08 µM).

For Cc1ccc(CNC(=O)OCC(Oc2ccc(F)c(C(N)=O)c2F)c2nc(-c3ccc(C(F)(F)F)cc3)c(Br)o2)cn1 (stereo not shown) [Compound 89, 2-{5-bromo-4-[4-(trifluoromethyl)phenyl]-1,3-oxazol-2-yl}-2-(3-carbamoyl-2,4-difluorophenoxy)ethyl [(6-methylpyridin-3-yl)methyl]carbamate], which MIC is on record?
The MIC was < 1.01 µg/mL.

For Cc1ncccc1CNC(=O)OCC(Oc1ccc(F)c(C(N)=O)c1F)c1nc(-c2ccc(C(F)(F)F)cc2)c(Br)o1 (stereo not shown) [Compound 90, 2-{5-bromo-4-[4-(trifluoromethyl)phenyl]-1,3-oxazol-2-yl}-2-(3-carbamoyl-2,4-difluorophenoxy)ethyl [(2-methylpyridin-3-yl)methyl]carbamate], which MIC is on record?
Its MIC is < 1.01 µg/mL.

Cc1cnccc1CNC(=O)OCC(Oc1ccc(F)c(C(N)=O)c1F)c1nc(-c2ccc(C(F)(F)F)cc2)c(Br)o1 (stereo not shown) [Compound 91, 2-{5-bromo-4-[4-(trifluoromethyl)phenyl]1,3-oxazol-2-yl}-2-(3-carbamoyl-2,4-difluorophenoxy)ethyl [(3-methylpyridin-4-yl)methyl]carbamate] was tested. Which MIC did it give?
Its MIC is < 1.01 µg/mL.

NC(=O)c1c(F)ccc(OC(COC(=O)NCCn2ccccc2=O)c2nc(-c3ccc(C(F)(F)F)cc3)c(Br)o2)c1F (stereo not shown) [Compound 92, 2-{5-bromo-4-[4-(trifluoromethyl)phenyl]-1,3-oxazol-2-yl}-2-(3-carbamoyl-2,4-difluorophenoxy)ethyl [2-(2-oxopyridin-1(2H)-yl)ethyl]carbamate] was tested. Which MIC did it give?
Its MIC is 1 to 4 µg/mL (≈ 1.49 to 5.96 µM).

With NC(=O)c1c(F)ccc(OC(CO)c2nc(-c3ccc(F)cc3F)c(Br)o2)c1F (stereo not shown) [Compound 99, 3-{1-[5-bromo-4-(2,4-difluorophenyl)-1,3-oxazol-2-yl]-2-hydroxyethoxy}-2,6-difluorobenzamide] as the molecule, how does the MIC read?
The MIC was < 1.01 µg/mL.

NC(=O)c1c(F)ccc(OC(CO)c2nc(-c3ccc(Br)s3)c(Br)o2)c1F (stereo not shown) [Compound 100, 3-{1-[5-bromo-4-(5-bromothiophen-2-yl)-1,3-oxazol-2-yl]-2-hydroxyethoxy}-2,6-difluorobenzamide] was tested. Which MIC did it give?
The MIC was 1 to 4 µg/mL (≈ 1.91 to 7.63 µM).

How did the MIC turn out when CNCNC(=O)c1c(F)ccc(OCc2nc3cc(Cl)cnc3s2)c1F [Compound 103] was run?
Its MIC is 4 to 16 µg/mL (≈ 10 to 40.1 µM).

Which MIC does the source give for CCCCCCCCCOc1ccc(F)c(C(=N)N)c1F [Compound 107, 2,6-difluoro-3-(nonyloxy)benzenecarboximidamide] here?
The MIC was 4 to 16 µg/mL (≈ 13.4 to 53.6 µM).

Which MIC does the source give for NC(=O)c1c(F)ccc(OCCCc2nc3cc(Cl)ccc3s2)c1F [Compound 109, 3-[3-(5-chloro-1,3-benzothiazol-2-yl)propoxy]-2,6-difluorobenzamide] here?
The MIC was 1 to 4 µg/mL (≈ 2.61 to 10.4 µM).

For NC(=O)c1c(F)ccc(OCCCc2nc(-c3ccc(C(F)(F)F)cc3)cs2)c1F [Compound 113, 2,6-difluoro-3-(3-{4-[4-(trifluoromethyl)phenyl]-1,3-thiazol-2-yl}propoxy)benzamide], which MIC is on record?
The MIC was 1 to 4 µg/mL (≈ 2.26 to 9.04 µM).

With NC(=O)c1c(F)ccc(OCCCc2nc(-c3ccc(OC(F)F)cc3)cs2)c1F [Compound 114, 3-(3-{4-[4-(difluoromethoxy)phenyl]-1,3-thiazol-2-yl}propoxy)-2,6-difluorobenzamide] as the molecule, how does the MIC read?
The MIC was 1 to 4 µg/mL (≈ 2.27 to 9.08 µM).

Which MIC does the source give for NC(=O)c1c(F)ccc(OCCCc2nc(-c3ccc(OC(F)(F)F)cc3)cs2)c1F [Compound 115, 2,6-difluoro-3-(3-{4-[4-(trifluoromethoxy)phenyl]-1,3-thiazol-2-yl}propoxy)benzamide] here?
Its MIC is 1 to 4 µg/mL (≈ 2.18 to 8.73 µM).

Which MIC does the source give for NC(=O)c1c(F)ccc(OCCCc2nc(-c3ccc(S(F)(F)(F)(F)F)cc3)cs2)c1F [Compound 116, 2,6-difluoro-3-(3-{4-[4-(pentafluoro-lambda~6~- sulfanyl)phenyl]-1,3-thiazol-2-yl}propoxy)benzamide] here?
The MIC was 1 to 4 µg/mL (≈ 2 to 7.99 µM).

Reference: patent US20170305943A1, “COMPOUNDS FOR THE TREATMENT OF BACTERIAL INFECTIONS” (priority 2014, published 2017)
